What was measured:
DLD1 cells [1] = assay: Long term response to mitotic stress (colony formation); format: cell-based, human; conditions: 4 hour exposure 12 hours after release, colonies over three weeks
Protocol: Cells synchronized by a sequential thymidine-aphidicolin block were either not exposed to mitotic stress or exposed to 0.5 μg/ml nocodazole or the TAXOL™ drug for a 4 hour period starting 12 hours after aphidicolin release or release from the G1-S block. The short term response to mitotic stress was evaluated by examining the cell cycle profile at the time of nocodazole removal, 24 or 48 hours later. At the indicated time points, the cells were recovered from the tissue culture plates with trypsin, fixed in 70% ethanol for 10 minutes and incubated with propidium iodide and DNase-free RNase (Roche) in PBS containing 1% fetal bovine serum and 2% Tween-20. The nuclear morphology of the cells was visualized by fluorescence microscopy. The DNA content of the cell population was determined by flow cytometry.
To evaluate the long term response of the cells to survive exposure to mitotic stress, at the time of nocodazole removal, the cells were replated at a density of 200 cells per 100 mm diameter tissue culture dish. The cells were allowed to replicate and colonies were counted 3 weeks later.
To the long term response of the cells to survive exposure to mitotic stress, synchronized DLD1-neo and DLD1-chfr cells were transiently exposed to nocodazole or the TAXOL™ drug, as described above (e.g., exposed to nocodazole or the TAXOL™ drug 12 hours after release from the G1-S block for a 4 hour period). At the time of nocodazole removal, the cells were replated at a density of 200 cells per 100 mm diameter tissue culture dish and then allowed to form colonies over a three-week period.

cyclin B/cdc2 = assay: Cdc2 kinase activity in synchronized DLD1 cells; format: cell-based, human; conditions: synchronized DLD1-neo and DLD1-chfr cells treated 12 hours after release from the G1-S block
Protocol: Whole cell extracts, prepared as described above, were incubated with anti-cyclin B antibody (Santa Cruz) coupled to protein G beads (Pharmacia) in CL buffer for 1 hour. The beads were washed three times with CL buffer and then twice with cdc2 kinase (CK) buffer (50 mM HEPES, pH 7.0, 10 mM MgCl2, 10 mM MnCl2, 200 mM NaCl). The beads were then incubated with 1 μg histone H1 (Upstate Biotechnology) in CK buffer supplemented with 30 mM DTT, 0.06 μM ATP and 1 μCi ^32P-γ-ATP for 20 minutes at 30° C., at which time the reactions were subjected to denaturing gel electrophoresis. Phosphorylation of histone H1 was detected by autoradiography.

[2] = system: eight human cancer cell lines (SW480, DLD1, HT29, HCT116, SAOS2, U20S, IMR5 and NGP); assay: Mitotic index of unsynchronized human cancer cell lines treated with nocodazole; format: cell-based; conditions: 16 hours after nocodazole
Protocol: All cancer cells were grown in DMEM supplemented with glutamine, penicillin, streptomycin and 10% fetal bovine serum (Life Sciences). Normal human epidermal keratinocytes and osteoblasts were grown in KGM2 and OGM media, respectively (Clonetics). The cells were examined either non-synchronized or synchronized. For synchronization, the cells were treated with 2 mM thymidine for 16 hours, then with 0.25 mM thymidine/deoxycytidine for 9 hours, and then with 0.5 μg/ml aphidicolin for 20–24 hours. The cells were washed three times with PBS between each step [Janss et al., 1998, Exp. Cell Res., 243:29–38]. To induce mitotic stress, synchronized or non-synchronized cells were exposed to 0.5 μg/ml nocodazole, 5 μM of the TAXOL™ drug or 0.5 μg/ml colcemid. Cells were grown on 8-well culture slides coated with human fibronectin (Becton Dickinson) and were examined as either non-synchronized or synchronized cells. […] The slides were sealed with coverslips using Fluoromount-G (Upstate Biotechnology) and visualized with a fluorescence microscope (Leica). […] The cells were scored for Mitotic Index. […]

DLD1 cells [3] = assay: Centrosome staining of synchronized DLD1-neo and DLD1-chfr cells; format: cell-based, human; conditions: nocodazole added 12 hours after aphidicolin release, 14 hour time point
Protocol: Cells were grown on 8-well culture slides coated with human fibronectin (Becton Dickinson) and were examined as either non-synchronized or synchronized cells. The cells were prepared for microscopy by washing them three times with KM buffer (10 mM MES, pH 6.2, 10 mM NaCl, 1.5 mM MgCl2, 2.5% glycerol), fixing with 1% paraformaldehyde in 0.5×KM buffer for 15 minutes, washing once with 0.2% Triton X-100 in phosphate buffer saline (PBS) for 20 minutes and three times with PBS. For centrosome staining, the cells were incubated for 1 hour with a 1:500 dilution of autoimmune serum Ab598 in PBS, washed three times with PBS, incubated with a Texas Red-conjugated anti-human secondary antibody (Vector Labs) diluted 1:200 in PBS and washed again three times with PBS. For DNA staining, the cells were incubated with DAP1 ([…] in PBS). The slides were sealed with coverslips using Fluoromount-G (Upstate Biotechnology) and visualized with a fluorescence microscope (Leica). Separate images, acquired using filters corresponding to the excitation maxima of DAP1 and Texas Red, were merged with IRIX image tools (Silicon Graphics).
To correlate the timing of the Chfr effect with progress through the cell cycle, synchronized cells were stained with DAP1 to monitor chromosome condensation and with an antibody that recognizes the centrosomes. […]

Chfr = molecular target: T1, Chfr (Homo sapiens, UniProt Q96EP1); assay: Ubiquitin-protein ligase assay in vitro; format: biochemical; conditions: crude bacterial lysates with E1, GST-Chfr, ubiquitin and ATP
T1 construct: Reactions were performed with full-length Chfr fused to GST; made in house; host or cells: E. coli (crude bacterial lysates)
T1 sequence (Q96EP1 1-664): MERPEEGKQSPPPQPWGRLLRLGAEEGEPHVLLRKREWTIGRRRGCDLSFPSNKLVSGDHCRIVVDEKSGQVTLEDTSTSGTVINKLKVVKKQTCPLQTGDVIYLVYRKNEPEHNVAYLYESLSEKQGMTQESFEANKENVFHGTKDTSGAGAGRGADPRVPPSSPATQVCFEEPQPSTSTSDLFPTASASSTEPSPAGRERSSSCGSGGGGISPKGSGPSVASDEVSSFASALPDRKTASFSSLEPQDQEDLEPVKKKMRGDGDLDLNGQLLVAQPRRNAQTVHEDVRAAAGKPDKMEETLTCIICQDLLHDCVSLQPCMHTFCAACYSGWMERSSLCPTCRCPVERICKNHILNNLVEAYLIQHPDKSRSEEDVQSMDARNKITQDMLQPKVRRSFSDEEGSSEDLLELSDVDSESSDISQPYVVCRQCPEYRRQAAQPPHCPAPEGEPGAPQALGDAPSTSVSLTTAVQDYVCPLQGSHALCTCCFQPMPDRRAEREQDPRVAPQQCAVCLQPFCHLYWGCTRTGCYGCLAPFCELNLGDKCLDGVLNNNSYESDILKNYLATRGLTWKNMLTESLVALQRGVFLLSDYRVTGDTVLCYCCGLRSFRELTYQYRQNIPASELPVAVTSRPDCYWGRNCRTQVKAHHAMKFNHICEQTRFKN
Protocol: Recombinant E. coli bacterial cells that have been genetically engineered to express the E1 ubiquitin-activating enzyme and the E2 ubiquitin-conjugating enzyme (either UbchD2 or Ubch8) and a […] comprised of glutathione S-transferase fused to the N-terminus of Chfr were lysed. The lysates were incubated in the presence of ubiquitin and ATP and the reaction allowed to proceed for 20 minutes at 30° C. GST-Chfr was captured on glutathione beads, eluted with SDS sample buffer, and resolved by SDS-PAGE. The SDS gel was immunoblotted with antibodies that recognize ubiquitin. Reactions were performed with full-length Chfr fused to GST and reactions were performed with Chfr lacking amino acid residues 1–280 of SEQ ID NO: 2, which contain the FHA domain.

Compound: CC(=O)O[C@H]1C(=O)[C@@]2(C)[C@H]([C@H](OC(=O)c3ccccc3)[C@]3(O)C[C@H](OC(=O)[C@H](O)[C@@H](NC(=O)c4ccccc4)c4ccccc4)C(C)=C1C3(C)C)[C@]1(OC(C)=O)CO[C@@H]1C[C@@H]2O [TAXOL™ drug]
- number of colony-forming units (CFUs) (DLD1 cells [1]; DLD1-chfr cells): unaffected
- number of colony-forming units (CFUs) (DLD1 cells [1]; DLD1-neo cells): decrease

Compound: COC(=O)Nc1nc2ccc(C(=O)c3cccs3)cc2[nH]1 [nocodazole]
- Cyclin B/cdc2 activity (cyclin B/cdc2): high
- number of colony-forming units (CFUs) (DLD1 cells [1]; DLD1-chfr cells): unaffected
- number of colony-forming units (CFUs) (DLD1 cells [1]; DLD1-neo cells): decrease
- mitotic index (fraction of cells that had condensed chromosomes) ([2]; cell lines that expressed wild-type Chfr): low
- mitotic index (fraction of cells that had condensed chromosomes) ([2]; cell lines with no detectable Chfr expression and U20S cells (variant chfr)): high
- centrosome separation (DLD1 cells [3]): inhibited

Compound: Ubch8: E2 ubiquitin-conjugating enzyme
- ability of the E2 ubiquitin-conjugating enzyme to support ligase activity of Chfr (Chfr): did not function in this assay
